Reference: patent US20060063759A1, “Tricyclic steroid hormone nuclear receptor modulators” (priority 2002, published 2006)

Assays:
glucocorticoid receptor = biological target: T1, glucocorticoid receptor (Homo sapiens, UniProt P04150); test: Glucocorticoid Receptor Binding Assay ([3H]-dexamethasone, A549 cell extract); conditions: [3H]-dexamethasone binding, read-out: GR Ki
T1 construct: containing 50-200 ug of A549 cell extract and 1.86 nM [^3H]-dexamethasone; host or cells: A549 human lung epithelial cells (sonicated cell extract)
T1 sequence (P04150 1-777): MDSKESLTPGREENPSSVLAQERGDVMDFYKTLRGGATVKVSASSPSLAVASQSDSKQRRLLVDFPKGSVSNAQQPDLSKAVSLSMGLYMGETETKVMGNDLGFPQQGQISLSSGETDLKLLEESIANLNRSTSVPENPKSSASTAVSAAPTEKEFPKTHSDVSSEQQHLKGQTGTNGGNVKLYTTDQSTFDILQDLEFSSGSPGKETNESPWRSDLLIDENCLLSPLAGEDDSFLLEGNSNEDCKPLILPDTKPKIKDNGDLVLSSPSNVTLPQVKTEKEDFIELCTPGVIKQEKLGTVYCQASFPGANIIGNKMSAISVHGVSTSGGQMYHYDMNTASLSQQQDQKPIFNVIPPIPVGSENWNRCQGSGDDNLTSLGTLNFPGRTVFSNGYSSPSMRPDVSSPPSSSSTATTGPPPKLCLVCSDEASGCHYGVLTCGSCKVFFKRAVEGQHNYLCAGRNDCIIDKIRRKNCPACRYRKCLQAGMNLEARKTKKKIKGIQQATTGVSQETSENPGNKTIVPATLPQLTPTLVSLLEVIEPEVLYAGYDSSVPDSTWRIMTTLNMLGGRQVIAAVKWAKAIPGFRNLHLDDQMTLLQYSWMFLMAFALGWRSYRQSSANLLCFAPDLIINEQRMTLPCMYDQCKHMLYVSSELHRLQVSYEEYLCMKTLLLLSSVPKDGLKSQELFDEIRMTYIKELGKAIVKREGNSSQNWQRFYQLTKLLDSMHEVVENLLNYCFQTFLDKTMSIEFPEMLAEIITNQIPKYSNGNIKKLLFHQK
Protocol: (§1) All ligands, radioligands, solvents, and reagents employed in the binding assays are readily available from commercial sources, or can be readily synthesized by the ordinarily skilled artisan.
A549 human lung epithelial cells (ATCC) are grown at a scale where gram quantity cell pellets are obtained. Harvested cell pellets are washed twice in cold phosphate buffered saline, centrifuged, and resuspended in cold assay binding buffer. The assay binding buffer consists of 10% glycerol, 50 mM Tris-HCl (pH7.2), 75 mM sodium chloride, 1.5 mM magnesium chloride, 1.5 mM EDTA, and 10 mM sodium molybdate. Cell suspensions were lysed via sonication, centrifuged, and the “extract” supernatant is snap frozen and stored at −80 C until needed.
GR binding assays are performed in a final volume of 140 ul containing 50-200 ug of A549 cell extract and 1.86 nM [^3H]-dexamethasone (Amersham) plus varying concentrations of test compound or vehicle. Briefly, assays are prepared at RT in 96-well Fisher 3356 plates, each well containing 100 ul of A549 cell extract, 20 ul of [^3H]-dexamethasone, and 20 ul of test compound/vehicle. Incubations are carried out at 4 degrees Celsius for 16 hours. After incubation, 70 ul of 3× dextran-coated charcoal solution is added to each reaction, mixed, and incubated for 8 minutes at RT. 3×-dextran-coated charcoal solution consists of 250 ml assay binding buffer, 3.75 g Norit A charcoal (Sigma), and 1.25 g dextran T-70 (Amersham). Charcoal/unbound radioligand complexes are removed by centrifugation of the plate and 140 ul of supernatant from each well is transferred to another 96 well Optiplate (Packard Instruments). 200 ul of Microscint-20 scinillant (Packard Instruments) is added to each well and amount of receptor bound radioligand is determined using Packard Instruments TopCount instrument.

human MR = biological target: T2, human MR (Homo sapiens, UniProt P08235); test: Mineralocorticoid Receptor Binding Assay ([3H]-aldosterone); conditions: [3H]-aldosterone binding, human MR expressed in Sf9 cells; read-out: MR Ki
T2 construct: The full length human MR gene is cloned from a human kidney or human brain cDNA library; His tag from the pAcHLT vector (own knowledge); made in house; host or cells: Sf9 insect cells (baculovirus, pAcHLT transfer vector)
T2 sequence (P08235 1-984): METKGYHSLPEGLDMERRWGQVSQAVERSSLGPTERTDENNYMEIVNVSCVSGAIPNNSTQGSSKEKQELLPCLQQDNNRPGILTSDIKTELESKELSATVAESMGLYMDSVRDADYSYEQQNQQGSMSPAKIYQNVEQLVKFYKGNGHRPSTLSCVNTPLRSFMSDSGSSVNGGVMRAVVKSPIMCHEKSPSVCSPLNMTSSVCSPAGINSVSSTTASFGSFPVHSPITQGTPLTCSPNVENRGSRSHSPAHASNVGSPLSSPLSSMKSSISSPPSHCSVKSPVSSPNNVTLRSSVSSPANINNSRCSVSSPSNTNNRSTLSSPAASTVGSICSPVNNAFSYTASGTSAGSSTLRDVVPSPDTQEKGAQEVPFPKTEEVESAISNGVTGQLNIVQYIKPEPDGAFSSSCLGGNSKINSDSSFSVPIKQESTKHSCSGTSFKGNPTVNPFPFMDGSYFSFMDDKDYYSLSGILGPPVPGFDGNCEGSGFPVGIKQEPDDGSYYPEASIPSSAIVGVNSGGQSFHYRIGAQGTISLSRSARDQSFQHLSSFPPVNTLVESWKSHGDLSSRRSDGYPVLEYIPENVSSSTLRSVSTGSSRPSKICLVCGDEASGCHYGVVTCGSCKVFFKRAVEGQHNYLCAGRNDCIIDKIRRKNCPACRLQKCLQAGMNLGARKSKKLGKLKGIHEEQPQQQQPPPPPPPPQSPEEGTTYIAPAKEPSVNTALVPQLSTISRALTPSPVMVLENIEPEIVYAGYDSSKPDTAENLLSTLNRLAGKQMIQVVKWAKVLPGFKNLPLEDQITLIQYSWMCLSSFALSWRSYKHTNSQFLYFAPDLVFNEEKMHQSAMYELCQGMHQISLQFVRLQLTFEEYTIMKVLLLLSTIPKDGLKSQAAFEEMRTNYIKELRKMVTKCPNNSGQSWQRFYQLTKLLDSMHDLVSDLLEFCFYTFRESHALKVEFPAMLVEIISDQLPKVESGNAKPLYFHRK
Protocol: as §1
The full length human MR gene is cloned from a human kidney or human brain cDNA library. […] The PCR reaction is performed in a final volume of 50 μl containing about 1 μl of a 50× stock solution of polymerase; about 1 μl of a 50× stock solution of dNTP; about 5 μl of an appropriate PCR buffer; about 1 μl of each primer; about […] of a H. kidney or H. brain cDNA library; and about 36 μl of water. The reaction is allowed to denature for about 30 seconds at 95 degrees Celsius, anneal for about 30 seconds at 55 degrees Celsius, and extend for about 5 minutes at 72 degrees Celsius, the sequence being repeated for a total of about 35 cycles. […] To extract the cDNA product from the agarose gel, the QIAEX II Gel Extraction protocol (QIAGEN, Inc.) is employed according to the manufacturer's instructions. Following extraction, the MR cDNA is cloned into an appropriate cloning vector (Zero Blunt TOPO PCR Cloning Kit Invitrogen, Inc.) and a pAcHLT-baculovinis transfer vector (B.D./Pharminogen), then expressed in SF9 insect cells, essentially according to manufacturer's instructions. Sf9 cells are grown at a scale where gram quantity cell pellets are obtained for subsequent use in the MR binding assay. Harvested cell pellets are lysed by repeated freeze-thaw cycles (about 4) in a suitable lysis buffer then centrifuged at about 1×10^3 G (with the supernatant being saved for future assays).
MR binding assays are performed in a final total volume of about 250 μl containing about 20-25 μg of protein and 0.5 nM of [^3H]-aldosterone plus varying concentrations of test compound or vehicle. The assay binding buffer consists of 30 mM sodium molybdate, 30 mM of TRIS-HCl, 5 mM sodium phosphate, 5 mM sodium pyrophosphate, and about 10% glycerol, pH=7.5.
Incubations are carried out at 4 degrees Celsius with shaking for about 16 hours. 200 μl aliquots of each incubation are filtered onto Millipore HA 0.45 micron 96-well filter plates, pre-moistened with cold 30 mM TRIS-HCl. The filter plates are suctioned dry with vacuum and immediately washed 3× with cold 30 mM TRIS-HCl. The plates are then punched out and the amount of receptor-ligand complex is determined by liquid scintillation counting using 4 ml of Ready Protein Plus™ liquid scintillation cocktail.
IC50 values (defined as the concentration of test compound required to decrease [^3H]-aldosterone binding by 50%/o) are then determined.

SMILES | Ki (glucocorticoid receptor) | Ki (human MR)
O=S(=O)(Nc1cccc(C=C2c3ccccc3CCc3cc(Cl)ccc32)c1)c1ccc(Cl)c(Cl)c1 [Example 294] | < 10 µM | < 0.5 µM
Cc1ccc2c(c1)CCc1ccccc1/C2=C\c1ccc(NS(C)(=O)=O)cc1 [Example 318] | < 1 µM | < 0.5 µM
CS(=O)(=O)Nc1cccc(/C=C2\c3ccccc3OCc3c(F)cccc32)c1 [Example 732] | < 0.5 µM | < 0.5 µM
Cc1cc(C)cc(C=C2c3ccccc3CCc3sccc32)c1 [Example 491] | < 10 µM | < 0.5 µM
CS(=O)(=O)Nc1cccc(/C=C2/c3ccccc3CCc3ncccc32)c1 [Example 251, (Z)-N-[3-(10,11-Dihydro-benzo[4,5]cyclohepta[1,2-b]pyridin-5-ylidenemethyl)-phenyl]-methanesulfonamide] | < 0.5 µM | < 0.5 µM
CNc1ccccc1C=C1c2ccccc2CCc2ccccc21 [Example 120, [2-(10,11-Dihydro-dibenzo[a,d]cyclohepten-5-ylidenemethyl)-phenyl]-methyl-amine] | < 10 µM | < 0.5 µM
Oc1cc(C=C2c3ccccc3CCc3c(Cl)cccc32)ccc1Cl [173(b), 2-Chloro-5-(1-chloro-10,11-dihydro-dibenzo[a,d]cyclohepten-5-ylidenemethyl)-phenol] | < 10 µM | < 0.5 µM
COc1ccc2c(c1)CCc1cc(C)ccc1C2=C(C)c1cccc(NS(C)(=O)=O)c1 [Example 827] | < 0.5 µM | < 0.5 µM
Fc1ccc2c(c1)CCc1ncccc1/C2=C\c1ccccc1C(F)F [Example 540] | < 0.5 µM | < 0.5 µM
Nc1nc2c(s1)C(=Cc1cccc(O)c1)c1ccccc1CC2 [Example 560] | < 1 µM | < 0.5 µM
CS(=O)(=O)Nc1cccc(/C=C2\c3ccccc3COc3ccc(Cl)cc32)c1 [Example 681] | < 0.5 µM | < 0.5 µM
Oc1cccc(/C=C2/c3ccccc3CCc3c(Br)cccc32)c1 [Example 371] | < 0.5 µM | < 0.5 µM
Fc1ccc2c(c1)CCc1ncccc1/C2=C\c1ccc(C(F)F)cc1 [Example 544] | < 1 µM | < 0.5 µM
CS(=O)(=O)Nc1cccc(C(C(=O)O)=C2c3ccccc3CCc3ccccc32)c1 [Example 754, (10,11-Dihydro-dibenzo[a,d]cyclohepten-5-ylidene)-(3-methanesulfonylamino-phenyl)-acetic acid] | < 0.5 µM | –
O=c1[nH]c2ccc(/C=C3/c4ccccc4COc4cc(F)ccc43)cc2[nH]1 [Example 631] | < 1 µM | –
O=S(=O)(Nc1cccc(/C=C2\c3ccccc3CSc3ccccc32)c1)c1ccc(Cl)c(Cl)c1 [Example 690] | < 1 µM | –
O=[N+]([O-])c1cccc(/C=C2/c3ccccc3OCc3c(Cl)cccc32)c1 [Example 272, 7-Chloro-11-(3-nitro-benzylidene)-6,11-dihydro-dibenzo[b,e]oxepine] | < 10 µM | –
O=[N+]([O-])c1cccc(/C=C2/c3ccccc3OCc3c(Cl)cccc32)c1 [Example 621] | – | < 0.5 µM

Next, values leading:

Ki (glucocorticoid receptor) | Ki (human MR) | SMILES
< 0.5 µM | < 0.5 µM | CS(=O)(=O)Nc1cccc(/C=C2/c3ccccc3COc3cc(F)ccc32)c1 [Example 629]
< 0.5 µM | < 0.5 µM | CS(=O)(=O)Nc1cccc(/C=C2/c3ccccc3CCc3cccc(Cl)c32)c1 [Example 366]
< 0.5 µM | < 0.5 µM | COc1cccc2c1/C(=C\c1cccc(NS(C)(=O)=O)c1)c1ccccc1OC2 [Example 704]
< 1 µM | < 0.5 µM | Cn1c(=O)[nH]c2cc(/C=C3\c4ccccc4CCc4cc(F)ccc43)ccc21 [Example 462]
< 0.5 µM | – | CCOc1ccc2c(c1)CCc1ccccc1C2=Cc1cccc(NS(C)(=O)=O)c1 [Example 331]
< 0.5 µM | – | COc1cccc2c1SCc1ccccc1C2=Cc1cccc(NS(C)(=O)=O)c1 [Example 686]
< 0.5 µM | – | CCCOc1ccc2c(c1)CCc1ccccc1C2=Cc1cccc(NS(C)(=O)=O)c1 [Example 332]
< 0.5 µM | – | CCNC(=O)Nc1cccc(C=C2c3ccccc3CSc3c(C)cccc32)c1 [Example 689]
< 1 µM | – | CS(=O)(=O)Nc1cccc(/C=C2\c3ccccc3CCc3ccc(S(C)(=O)=O)cc32)c1 [Example 324]
– | < 1 µM | CS(=O)(=O)Nc1ccc2c(c1)CCc1ccccc1/C2=C/c1cccc(O)c1 [Example 337]
